Assay: Human HepG2 cell viability assay in 384 well format
Format: toxicity, cell-based
Set-up: dose 125 nL, time 70.5 hour; cytotoxicity at 70.5 h: concentration not given beside the values
Details: HepG2 cells, read-out: Inhibition
`Cn1cccc1C(=O)N1CCN(Cc2cccnc2)c2ncccc2C1` showed a cytotoxicity at 70.5 h of -8.24%.
`CN1CCC(c2cncc(Cl)n2)CC1` showed a cytotoxicity at 70.5 h of -5.05%.
In the case of `Cn1cc(C2CCCN2C(=O)Cn2c(=O)oc3ccccc32)cn1` (centres undefined), the cytotoxicity at 70.5 h is reported as -4.25%.
With `COC(=O)c1ccc(N2CCN(C(=O)c3ccncc3)C(C)C2)cc1` (centres undefined) the cytotoxicity at 70.5 h was 15.3%.
For `c1ccc(-c2nc(CN3CCOC(Cn4cccn4)C3)no2)cc1` (centres undefined), the cytotoxicity at 70.5 h was 2.47%.
In the case of `N#Cc1c(Cl)nsc1NCCCN1C(=O)COc2ccccc21`, the cytotoxicity at 70.5 h is reported as 8.75%.
Compound `CC(C)(C)c1n[nH]c(C2CN(C(=O)CCC3CC3)CCO2)n1` (centres undefined) has a cytotoxicity at 70.5 h of -9.78%.
`COc1ccc(C(=O)N2CCCC2c2noc(C(C)C)n2)nn1` (centres undefined) showed a cytotoxicity at 70.5 h of -4.87%.
For `CC(=O)NC(C)(C)C(=O)Nc1ncc(Cc2ccc(C)c(F)c2)s1`, the cytotoxicity at 70.5 h was -0.712%.
`CCCn1cc(NC(=O)c2ccncc2)ccc1=O` showed a cytotoxicity at 70.5 h of -8.23%.
`CCOc1ccc(NC(=O)Nc2cnc(N3CCOCC3)nc2)cc1` showed a cytotoxicity at 70.5 h of 3.88%.
Work on `c1csc(-c2noc(CN3CCCCC3Cn3cccn3)n2)c1` (centres undefined) yielded a cytotoxicity at 70.5 h of -1.63%.
Compound `O=C(CN1CCCCC1)Nc1cc(C(F)(F)F)ccc1-n1cccc1` has a cytotoxicity at 70.5 h of -9.88%.
For `COc1cccc(CNCCNS(=O)(=O)Cc2ccccc2)c1`, the cytotoxicity at 70.5 h was -6.4%.
In the case of `Cc1cc(CN2CCC(c3nccn3C(C)C)CC2)ccc1F`, the cytotoxicity at 70.5 h is reported as 15.8%.
With `CC(C)c1nnc(NCc2cc3n(n2)CCNC3)s1` the cytotoxicity at 70.5 h was -8.56%.
`CCOc1ccc(-c2c(-c3ccccc3)ncn2C2CCNC2)cn1` (centres undefined) gave a cytotoxicity at 70.5 h of -12.8%.
`Cc1ccoc1C(=O)N1CC[C@H]2[C@@H]1CCC(=O)N2c1cccnc1` gave a cytotoxicity at 70.5 h of -14.8%.
`COCc1nc2ncc3c(=O)n(-c4ccc(OC)cc4)ccc3n2n1` showed a cytotoxicity at 70.5 h of -5.86%.
Compound `CN(C)S(=O)(=O)N1C[C@@H]2CC[C@H](C1)N(CCC(=O)NCc1ccco1)C2` has a cytotoxicity at 70.5 h of 2.74%.
`CN1CCC(Cc2noc(-c3cn(Cc4ccc(F)cc4)nn3)n2)CC1` gave a cytotoxicity at 70.5 h of -3.72%.
Compound `CC(C)c1ncc2c(n1)CN(Cc1cccc(OCC(N)=O)c1)CC2` has a cytotoxicity at 70.5 h of -7.58%.
`O=C(NCC1CC(=O)N(CCc2ccccc2)C1)c1c(F)cccc1F` (centres undefined) gave a cytotoxicity at 70.5 h of 3.42%.
With `c1cc(N2CCC(c3nnc(Cn4ccnc4)n3C3CC3)CC2)ccn1` the cytotoxicity at 70.5 h was -6.52%.
Work on `Cc1cc(CN2CCCC(C)(CO)C2)ccc1F` (centres undefined) yielded a cytotoxicity at 70.5 h of -6.61%.
In the case of `CCc1ccccc1C(=O)N1CCCC1CC(=O)c1cnn(C)c1` (centres undefined), the cytotoxicity at 70.5 h is reported as -13.4%.
`O=C(NC1CCC1)[C@H]1CCS(=O)(=O)[C@@H]2CN(CCc3ccccc3)C[C@H]12` showed a cytotoxicity at 70.5 h of 0.419%.
`Fc1ccccc1Cc1noc(CN2CCC(N3CCSCC3)CC2)n1` showed a cytotoxicity at 70.5 h of -3.88%.
`CC(C)(C)c1cc(CN2CCOCC(O)C2)n[nH]1` (centres undefined) showed a cytotoxicity at 70.5 h of 2.49%.
Compound `CCNC(=O)C1CCCN(c2cccc(C(F)(F)F)n2)C1` (centres undefined) has a cytotoxicity at 70.5 h of 21.5%.
`CCC(C)NC(=O)CCn1ccc(C)n1` (centres undefined) showed a cytotoxicity at 70.5 h of -6.22%.
Work on `Cc1nc(C2(NCC(=O)NC(=O)NCC(F)(F)F)CCCCC2)no1` yielded a cytotoxicity at 70.5 h of 13.9%.
`O=C(c1ccco1)N1CC[C@@H]2O[C@@H](COCC3CCOCC3)CC[C@@H]21` gave a cytotoxicity at 70.5 h of 11.4%.
With `CN1CCC(Cc2cnc3ccccc3c2)C1` (centres undefined) the cytotoxicity at 70.5 h was 1.19%.
With `Cc1cccc(C(=O)N2C[C@H]3CC[C@@H]2CN(S(=O)(=O)N(C)C)C3)n1` the cytotoxicity at 70.5 h was -10.2%.
With `CCc1nc(C2CCCN2C(=O)c2csc(COC)n2)no1` (centres undefined) the cytotoxicity at 70.5 h was -0.0198%.
`O=C(NCCn1cccc1)C1CCN(C2CCCCC2)CC1` showed a cytotoxicity at 70.5 h of -13.6%.
In the case of `Cc1nccn1C1CCCN(C(=O)c2ccc3c(c2)OCCCO3)C1` (centres undefined), the cytotoxicity at 70.5 h is reported as -0.919%.
In the case of `CCCN1CCC(N2CCC(Cn3cc(C4CC4)nn3)CC2)CC1`, the cytotoxicity at 70.5 h is reported as -8.35%.
Compound `Cc1noc(C)c1CN1CCO[C@H]2CN(C(=O)C3CCOCC3)C[C@H]21` has a cytotoxicity at 70.5 h of -0.225%.
With `Cc1ncc2c(n1)CN(CC(=O)Nc1cccnc1)CC2` the cytotoxicity at 70.5 h was 17.5%.
Compound `CCc1ncc2c(n1)CN(CC(=O)Nc1cccnc1)CC2` has a cytotoxicity at 70.5 h of 10.9%.
`CC(C)CCCNC(=O)Nc1ccc(Cl)c(C(N)=O)c1` gave a cytotoxicity at 70.5 h of 1.37%.
In the case of `CCN(CC)c1ccc(NS(=O)(=O)c2cncc(F)c2)cn1`, the cytotoxicity at 70.5 h is reported as -0.536%.
